Laboratory results published in patent US20110190365A1, “Insecticidal 4-phenyl-1H-pyrazoles” (Bayer Crop Science AG, priority 2008, published 2011).

test: log P by HPLC on a reversed-phase column (C18), EEC Directive 79/831 Annex V.A8; assay type: physicochemical; conditions: HCOOH
Method: The stated log P values were determined in accordance with EEC Directive 79/831 Annex V.A8 by HPLC (High Performance Liquid Chromatography) using a reversed-phase column (C18).

| SMILES | log P (HCOOH) |
| --- | --- |
| CC(C)NC(=O)c1ccc(-n2nc(C(F)(F)F)c(-c3ccc(Cl)cc3)c2N)cc1 [I-A-Q2-161] | I-A-Q2-161: log P (HCOOH): 3.37 |
| Nc1c(-c2ccc(Br)cc2)c(C(F)(F)F)nn1-c1ccc(C(=O)NC2CC2)cc1 [I-A-Q2-190] | I-A-Q2-190: log P (HCOOH): 3.15 |
| Cc1cc(-n2nc(C)c(-c3c(F)cc(F)cc3F)c2N)ccc1C(=O)NCC(F)(F)C(F)F [I-A-Q2-328] | I-A-Q2-328: log P (HCOOH): 2.48 |
| CC(NC(=O)c1ccc(-n2nc(C(F)(F)F)c(-c3cc(Cl)cc(Cl)c3)c2N)cc1)c1ccccc1 (stereo not shown) [I-A-Q2-150] | I-A-Q2-150: log P (HCOOH): 4.65 |
| Nc1c(-c2cc(Cl)cc(Cl)c2)c(C(F)(F)F)nn1-c1ccc(C(=O)NCC(F)(F)F)cn1 [I-A-Q2-101] | I-A-Q2-101: log P (HCOOH): 4.71 |
| Cc1cc(-n2nc(C(F)(F)F)cc2N)ccc1C(=O)NCC(F)(F)C(F)F [XI-A-088] | XI-A-088: log P (HCOOH): 2.63 |
| Cc1cc(-n2nc(C(F)(F)Oc3ccc(Cl)cc3)c(-c3cc(Cl)cc(C(F)(F)F)c3)c2N)ccc1C(=O)NCC(F)(F)C(F)F [I-A-Q2-294] | I-A-Q2-294: log P (HCOOH): 4.95 |
| Cc1cc(-n2nc(C(F)(F)F)c(-c3cc(Cl)cc(Cl)c3)c2N)ccc1C(=O)NC(C)c1ccc(Cl)cc1 (stereo not shown) [I-A-Q2-213] | I-A-Q2-213: log P (HCOOH): 4.89 |
| Nc1c(-c2cc(Cl)cc(Cl)c2)c(C(F)(F)F)nn1-c1ccc(C(=O)NCc2ccccn2)cc1 [I-A-Q2-134] | I-A-Q2-134: log P (HCOOH): 3.11 |
| CSCC(C)NC(=O)c1ccc(-n2nc(C(F)(F)F)c(-c3cc(Cl)cc(Cl)c3)c2N)cc1C (stereo not shown) [I-A-Q2-279] | I-A-Q2-279: log P (HCOOH): 4.43 |
| Nc1c(-c2cccc(Br)c2)c(C(F)(F)F)nn1-c1ccc(C(=O)NC2CC2)cc1 [I-A-Q2-173] | I-A-Q2-173: log P (HCOOH): 3.11 |
| C=CCNC(=O)c1ccc(-n2nc(C(F)(F)F)c(-c3cc(Cl)cc(Cl)c3)c2N)cc1 [I-A-Q2-144] | I-A-Q2-144: log P (HCOOH): 3.93 |
| Cc1cc(-n2nc(C(F)(F)c3cccc(C(F)(F)F)c3)c(-c3cc(Cl)cc(C(F)(F)F)c3)c2N)ccc1C(=O)NCC(F)(F)C(F)F [I-A-Q2-286] | I-A-Q2-286: log P (HCOOH): 4.89 |
| Cc1cc(C)cc(-c2c(C(F)(F)F)nn(-c3ccc(C(=O)NC(C)C(F)(F)F)cc3)c2N)c1 (stereo not shown) [I-A-Q2-178] | I-A-Q2-178: log P (HCOOH): 3.89 |
| CNC(=O)c1ccc(-n2nc(C(F)(F)F)c(-c3ccc(Cl)cc3)c2N)cc1 [I-A-Q2-195] | I-A-Q2-195: log P (HCOOH): 2.96 |
| Cc1cc(-n2nc(C(F)(F)F)cc2N)ccc1C(=O)NCc1ccccn1 [XI-A-089] | XI-A-089: log P (HCOOH): 2.45 |
| Cc1cc(-n2nc(CC(C)C)c(-c3ccc(Cl)cc3)c2N)ccc1C(=O)NCc1ccccn1 [I-A-Q2-382] | I-A-Q2-382: log P (HCOOH): 2.84 |
| Cc1cc(-n2nc(C(F)(F)F)c(-c3cc(Cl)cc(Cl)c3)c2N)ccc1C(=O)N(Cc1ccccn1)Cc1ccccn1 [I-A-Q2-199] | I-A-Q2-199: log P (HCOOH): 3.48 |
| C#CCNC(=O)c1ccc(-n2nc(C(F)(F)F)c(-c3cc(Cl)cc(Cl)c3)c2N)cc1C [I-A-Q2-238] | I-A-Q2-238: log P (HCOOH): 3.78 |

| SMILES | log P (HCOOH) |
| --- | --- |
| CCCNC(=O)c1ccc(-n2nc(C(F)(F)F)c(-c3cc(Cl)cc(Cl)c3)c2N)cc1 [I-A-Q2-151] | I-A-Q2-151: log P (HCOOH): 4.06 |
| CCOC(=O)c1ccc(-n2nc(C(F)(F)F)c(I)c2N)cc1 [XI-A-044] | XI-A-044: log P (HCOOH): 3.66 |
| CCCCCNC(=O)c1ccc(-n2nc(C(F)(F)F)c(-c3cc(Cl)cc(Cl)c3)c2N)cc1C [I-A-Q2-237] | I-A-Q2-237: log P (HCOOH): 4.76 |
| Cc1cc(-n2nc(C(F)(F)F)c(-c3cc(Cl)cc(Cl)c3)c2N)ccc1C(=O)NC(C)c1nccc2ccccc12 (stereo not shown) [I-A-Q2-256] | I-A-Q2-256: log P (HCOOH): 4.64 |
| Cc1cc(-n2nc(C(F)F)c(-c3ccc(Cl)cc3)c2N)ccc1C(=O)NCc1ccccn1 [I-A-Q2-362] | I-A-Q2-362: log P (HCOOH): 2.27 |
| Cc1cc(-n2nc(C(F)(F)F)c(-c3cc(Cl)cc(Cl)c3)c2N)ccc1C(=O)NCC(F)(F)Br [I-A-Q2-268] | I-A-Q2-268: log P (HCOOH): 4.45 |
| Cc1cc(-n2nc(C(F)(F)F)c(-c3cc(C(F)(F)F)cc(C(F)(F)F)c3)c2N)ccc1C(=O)NCC(F)(F)C(F)F [I-A-Q2-318] | I-A-Q2-318: log P (HCOOH): 4.23 |
| CNC(=O)c1ccc(-n2nc(C(F)(F)F)c(-c3cc(Cl)cc(Cl)c3)c2Br)nc1 [I-A-Q2-109] | I-A-Q2-109: log P (HCOOH): 4.35 |
| Cc1cc(-n2nc(C(F)(F)F)c(-c3ccccc3Cl)c2N)ccc1C(=O)NCC(F)(F)C(F)F [I-A-Q2-308] | I-A-Q2-308: log P (HCOOH): 3.23 |
| Nc1c(-c2ccc(Cl)cc2)c(-c2ccccc2)nn1-c1ccc(C(=O)NCc2ncccn2)cc1 [I-A-Q2-076] | I-A-Q2-076: log P (HCOOH): 2.89 |
| Cc1cc(-n2nc(C3CC3)c(-c3ccc(Cl)cc3)c2N)ccc1C(=O)NCC(F)(F)C(F)F [I-A-Q2-341] | I-A-Q2-341: log P (HCOOH): 3.46 |
| Cc1cc(-n2nc(C(F)(F)F)c(-c3cc(Cl)cc(Cl)c3)c2I)ccc1C(=O)NC(C)C(F)(F)F (stereo not shown) [I-A-Q2-026] | I-A-Q2-026: log P (HCOOH): 5.44 |
| Cc1cc(-n2nc(C(F)(F)F)c(-c3cc(F)cc(Cl)c3)c2N)ccc1C(=O)NCC(F)(F)C(F)F [I-A-Q2-301] | I-A-Q2-301: log P (HCOOH): 3.75 |
| Cc1cc(-n2nc(C(F)(F)F)c(-c3cc(Cl)cc(Cl)c3)c2N)ccc1C(=O)N(C)CC(F)(F)F [I-A-Q2-236] | I-A-Q2-236: log P (HCOOH): 4.51 |
| Cc1cc(-n2nc(C(F)(F)F)c(-c3cc(Cl)cc(Cl)c3)c2N)ccc1C(=O)NC(CC(F)(F)F)C(F)(F)F (stereo not shown) [I-A-Q2-217] | I-A-Q2-217: log P (HCOOH): 4.70 |
| Cc1cc(-n2nc(C(F)(F)F)c(-c3cc(Cl)cc(Cl)c3)c2N)ccc1C(=O)NC1CCS(=O)(=O)C1 (stereo not shown) [I-A-Q2-218] | I-A-Q2-218: log P (HCOOH): 3.33 |
| Cc1cc(-n2nc(C(F)(F)F)c(-c3cc(Cl)cc(Cl)c3)c2N)ccc1C(=O)NC(c1ccc(N(C)C)cc1)C(F)(F)F (stereo not shown) [I-A-Q2-246] | I-A-Q2-246: log P (HCOOH): 5.02 |
| CSc1c(-c2cc(Cl)cc(Cl)c2)c(C(F)(F)F)nn1-c1ccc(C(=O)NCc2ncccn2)c(C)c1 [I-A-Q2-276] | I-A-Q2-276: log P (HCOOH): 4.50 |
| CCC(CC)NC(=O)c1ccc(-n2nc(C(F)(F)F)c(-c3cc(Cl)cc(Cl)c3)c2N)cc1C [I-A-Q2-225] | I-A-Q2-225: log P (HCOOH): 4.57 |

same assay, conditions: HCOOH; Table 4, compounds of formula I-A-Q4

| SMILES | log P (HCOOH) |
| --- | --- |
| CCOC(=O)c1ccc(-n2nc(C(F)(F)F)c(-c3cc(Cl)cc(Cl)c3)c2N)cc1 [I-A-Q4-086] | I-A-Q4-086: log P (HCOOH): 4.93 |
| Nc1c(-c2cc(Cl)cc(C(F)(F)F)c2)c(C(F)(F)Cl)nn1-c1ccc(Cl)cn1 [I-A-Q4-059] | I-A-Q4-059: log P (HCOOH): 5.81 |
| N#Cc1cc(-n2nc(C(F)(F)F)c(-c3cc(Cl)cc(Cl)c3)c2N)ccc1I [I-A-Q4-102] | I-A-Q4-102: log P (HCOOH): 5.94 |
| CC(C)Cc1nn(-c2ccc(Cl)cn2)c(N)c1-c1ccc(Cl)cc1 [I-A-Q4-062] | I-A-Q4-062: log P (HCOOH): 5.97 |
| Nc1c(-c2ccc(Br)cc2)c(C(F)(F)F)nn1-c1ccc(C(=O)O)cc1 [I-A-Q4-098] | I-A-Q4-098: log P (HCOOH): 3.35 |
| Cc1nn(-c2ccc(Cl)cn2)c(N)c1-c1cccc(Cl)c1 [I-A-Q4-034] | I-A-Q4-034: log P (HCOOH): 4.40 |
| Nc1c(-c2ccc(Cl)cc2)c(C(F)(F)C(F)(F)F)nn1-c1ccc(Cl)cn1 [I-A-Q4-058] | I-A-Q4-058: log P (HCOOH): 5.44 |
| N#Cc1cc(-n2nc(C(F)(F)F)c(-c3cc(Cl)cc(Cl)c3)c2N)ccc1S(=O)(=O)NCC(F)(F)F [I-A-Q4-123] | I-A-Q4-123: log P (HCOOH): 4.41 |

same assay, conditions: HCOOH; Table 6, compounds of formula I-B-Q2

| SMILES | log P (HCOOH) |
| --- | --- |
| CC(NC(=O)c1ccc(-n2cc(-c3cc(Cl)cc(Cl)c3)c(C(F)(F)F)n2)c2ccccc12)C(F)(F)F (stereo not shown) [I-B-Q2-001] | I-B-Q2-001: log P (HCOOH): 4.74 |

same assay, conditions: HPLC, reversed-phase C18, mobile phase with formic acid

| SMILES | log P (HCOOH) |
| --- | --- |
| Nc1c(-c2cc(Cl)cc(Cl)c2)c(C(F)(F)F)nn1-c1ccc(-n2cncn2)c(Cl)c1 [I-A-Q1-069] | I-A-Q1-069: log P (HCOOH): 4.14 |
| N#Cc1cc(-n2nc(C(F)(F)F)c(-c3ccc(F)c(F)c3)c2N)ccc1-n1cncn1 [I-A-Q1-044] | I-A-Q1-044: log P (HCOOH): 3.10 |
| N#Cc1cc(-n2nc(C(F)F)c(-c3ccc(Cl)cc3)c2N)ccc1-n1cncn1 [I-A-Q1-030] | I-A-Q1-030: log P (HCOOH): 2.92 |
| N#Cc1cc(-n2nc(C(F)(F)F)c(-c3cc(Cl)cc(Cl)c3)c2N)ccc1-n1ccnc1 [I-A-Q1-076] | I-A-Q1-076: log P (HCOOH): 2.98 |
| N#Cc1cc(-n2nc(C(F)(F)F)c(-c3cc(F)cc(Cl)c3)c2N)ccc1-n1cncn1 [I-A-Q1-037] | I-A-Q1-037: log P (HCOOH): 3.33 |
| Nc1c(-c2cc(Cl)cc(Cl)c2)c(C(F)(F)F)nn1-c1ccc(CNC(=O)CC(F)(F)F)c(Cl)c1 [I-A-Q3-021] | I-A-Q3-021: log P (HCOOH): 4.48 |
| N#Cc1cc(-n2nc(C(F)(F)F)c(-c3cc(Cl)cc(Cl)c3)c2N)ccc1-n1cc(Cl)cn1 [I-A-Q1-084] | I-A-Q1-084: log P (HCOOH): 4.70 |
| N#Cc1cc(-n2nc(C(F)(F)F)c(-c3ccc(F)c(Cl)c3)c2N)ccc1-n1cncn1 [I-A-Q1-036] | I-A-Q1-036: log P (HCOOH): 3.24 |
| Cc1nn(-c2ccc(-n3cncn3)c(C#N)c2)c(N)c1-c1ccccc1Cl [I-A-Q1-060] | I-A-Q1-060: log P (HCOOH): 2.27 |
| Cc1nn(-c2ccc(-n3cncn3)c(C#N)c2)c(N)c1-c1c(Cl)cccc1Cl [I-A-Q1-055] | I-A-Q1-055: log P (HCOOH): 2.47 |
| N#Cc1cc(-n2nc(C(F)(F)Oc3ccccc3)c(-c3cc(Cl)cc(C(F)(F)F)c3)c2N)ccc1-n1cncn1 [I-A-Q1-074] | I-A-Q1-074: log P (HCOOH): 4.33 |
| N#Cc1cc(-n2nc(C(F)(F)F)c(-c3ccc(Cl)cc3Cl)c2N)ccc1-n1cncn1 [I-A-Q1-045] | I-A-Q1-045: log P (HCOOH): 2.64 |
| N#Cc1cnn(-c2ccc(-n3nc(C(F)(F)F)c(-c4cc(Cl)cc(Cl)c4)c3N)cc2C#N)c1 [I-A-Q1-079] | I-A-Q1-079: log P (HCOOH): 4.28 |
| N#Cc1cc(-n2nc(C(F)(F)F)c(-c3cc(Cl)cc(Cl)c3)c2N)ccc1-n1ccnc1C#N [I-A-Q1-077] | I-A-Q1-077: log P (HCOOH): 4.05 |
